Assay [1] deals with T1, Adenosine receptor A1 (Homo sapiens, UniProt P30542).
T1 sequence (P30542 whole entry): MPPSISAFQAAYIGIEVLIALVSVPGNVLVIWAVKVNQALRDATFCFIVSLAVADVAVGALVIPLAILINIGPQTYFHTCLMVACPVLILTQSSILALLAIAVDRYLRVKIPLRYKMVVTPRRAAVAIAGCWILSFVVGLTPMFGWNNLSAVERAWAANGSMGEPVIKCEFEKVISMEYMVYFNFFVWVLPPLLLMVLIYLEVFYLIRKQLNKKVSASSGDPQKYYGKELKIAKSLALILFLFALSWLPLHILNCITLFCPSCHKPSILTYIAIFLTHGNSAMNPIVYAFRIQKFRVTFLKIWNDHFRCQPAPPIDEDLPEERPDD
As to the kind of experiment: Adenosine Receptor Binding Assay. As for the experimental part: (§1) Inhibition binding assays were performed using 0.2 μg of membranes prepared from […] cells infected with BacMam human adenosine A2A receptor or 1.4 μg of membranes […] receptor. Membranes were incubated in 50 mM Tris-HCl (HEK293-hA2A; pH 7.4) or 50 mM Tris-HCl, 100 mM NaCl, 10 mM MgCl2 (CHO-hA1; pH 7.4) in the presence of varying concentrations of test compound and 1 nM [3H]ZM241385 (HEK293-hA2A) or [3H]DPCPX (CHO-hA1) at 25° C. for 1 h. The assay was then terminated by rapid filtration onto GF/B grade Unifilter plates using a TomTec cell harvester, followed by 5×0.5 ml washes with ddH2O. Nonspecific binding was defined in the presence of 1 μM CGS15943 (HEK293-hA2A) or 1 μM DPCPX (CHO-hA1). Bound radioactivity was determined by liquid scintillation counting and inhibition curves were analysed using a four-parameter logistic equation.

For assay [2], the target named is Adenosine receptor A2a (Homo sapiens, UniProt P29274). As to the kind of experiment: Adenosine Receptor Binding Assay. The procedure: as §1

Our source for the Ki values is BindingDB's records for patent US12552799 (Nxera Pharma, 2026).

Adenosine receptor A2a, sequence (P29274 whole entry): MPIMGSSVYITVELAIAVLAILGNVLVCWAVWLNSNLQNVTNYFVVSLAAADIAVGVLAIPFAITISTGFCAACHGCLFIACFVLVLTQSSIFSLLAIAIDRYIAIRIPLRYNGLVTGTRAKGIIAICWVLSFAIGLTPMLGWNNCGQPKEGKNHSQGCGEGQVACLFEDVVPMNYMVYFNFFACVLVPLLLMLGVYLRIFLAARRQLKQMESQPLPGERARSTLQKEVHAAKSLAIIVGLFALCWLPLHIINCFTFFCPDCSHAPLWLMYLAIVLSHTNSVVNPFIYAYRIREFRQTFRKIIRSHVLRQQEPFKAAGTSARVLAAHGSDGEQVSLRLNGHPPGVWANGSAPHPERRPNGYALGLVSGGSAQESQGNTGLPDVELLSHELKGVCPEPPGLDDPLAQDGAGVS

Usually Ki stands for a measure of affinity in units of concentration, obtained from inhibition or displacement. Low readings indicate tighter binding, high ones weaker binding. With `C[C@@H]1CN(c2c(-c3ccccc3)nc(N)n3c(=O)n(CCCF)nc23)C[C@H](C)O1` [US12552799, Example 1-2], the Ki in assay [1] was more than 3160 nM; in assay [2] it was 158 nM.
For `CCCn1nc2c(N3C[C@@H](C)O[C@@H](C)C3)c(-c3ccccc3)nc(N)n2c1=O` [US12552799, Example 1-4] the same measures were more than 3160 nM and 63.1 nM.
For `C[C@@H]1CN(c2c(-c3ccccc3)nc(N)n3c(=O)n(C[C@@H]4CCCN4C)nc23)C[C@H](C)O1` [US12552799, Example 1-7] the same measures were 2000 nM and 158 nM.
Consider `C[C@@H]1CN(c2c(-c3ccccc3)nc(N)n3c(=O)n(C[C@H]4CCCO4)nc23)C[C@H](C)O1` [US12552799, Example 1-8], for which the figures for the Ki in assay [1] and in assay [2] were more than 2000 nM and 10 nM, respectively.
With `Cc1cc(-c2c(-c3ccccc3)nc(N)n3c(=O)n(Cc4ccc(F)cn4)nc23)cc(C)c1O` [US12552799, Example 3-1], the results for the Ki in assay [1] and in assay [2] were 100 nM and 0.631 nM, respectively.
As to `Cc1cc(-c2c(-c3ccc(F)cc3)nc(N)n3c(=O)n(Cc4ccc(Cl)cn4)nc23)cc2ocnc12` [US12552799, Example 4-2], the Ki in assay [1] was 63.1 nM; in assay [2] it was 0.158 nM.
For the compound `Cc1cc(-c2c(-c3ccccc3)nc(N)n3c(=O)n(Cc4ccc(F)cn4)nc23)cc2c1N=NC2` [US12552799, Example 4-4], the Ki in assay [1] came out at 25.1 nM; in assay [2], 0.251 nM.
Take `Cc1ocnc1Cn1nc2c(-c3cc(C)c4ncoc4c3)c(-c3ccccc3)nc(N)n2c1=O` [US12552799, Example 4-6]: the values for the Ki in assay [1] and in assay [2] were 7.94 nM and 0.079 nM, respectively.
